The values that follow come from ChEMBL document CHEMBL3507680, “University of Dundee, Gates Library screen for HepG2 cell viability”.

This data set can be described thus: Human HepG2 cell viability assay in 384 well format. It is filed as toxicity, cell-based. Further details: dose 125 nL, time 70.5 hour; concentration not given beside the values. To be noted: HepG2 cells, read-out: Inhibition.
`CN(C)C(=O)c1csc(-c2ccoc2)n1`: the cytotoxicity at 70.5 h is 27.9%.

On to `OCC1(CNC2CCc3cc4c(cc32)OCCO4)CC1` (stereo not drawn), for which the cytotoxicity at 70.5 h was found to be 22.1%.

`Cc1sc2nc(SC(C)c3nc(C(C)(C)C)no3)nc(N)c2c1C` (stereo not drawn): the cytotoxicity at 70.5 h is 21.9%.

Turning to `CCN(C(=O)CN1CCCC1c1cccs1)c1ccccc1C` (stereo not drawn), the cytotoxicity at 70.5 h came out at 30.3%.

On to `CN(Cc1nccn1C)C(=O)C1COCC(=O)N1Cc1ccccc1` (stereo not drawn), for which the cytotoxicity at 70.5 h was found to be 30.1%.

With `CC(C)Cn1ncc2cc(C(=O)N(C)Cc3cccc(O)c3)cnc21`, the cytotoxicity at 70.5 h is 11.7%.

For the molecule `CC(C)N(C(=O)c1csc(-c2ccoc2)n1)C1CCOCC1`, the cytotoxicity at 70.5 h was -10.2%.

With `Cc1n[nH]c(C2CN(Cc3ncc(C(C)C)o3)CCO2)n1` (stereo not drawn), the cytotoxicity at 70.5 h came out at 0.362%.

As for `CC(C)c1cccc(-n2cc(O)c(C(=O)NCCC(=O)N(C)C)n2)c1`, the cytotoxicity at 70.5 h was -6.63%.

In the case of `O=C1CCCc2[nH]c(=O)c(C(=O)N(CC3CCCCC3)C3CC3)cc21`, the cytotoxicity at 70.5 h was -7.98%.

For `CN(CC1CCC1)C(=O)c1ccc(-c2nc(C3CC3)n[nH]2)cc1`, the cytotoxicity at 70.5 h was -8.67%.

`CN(CC(O)C1CC1)C(=O)c1ccc(-c2nc(C3CC3)n[nH]2)cc1` (stereo not drawn): the cytotoxicity at 70.5 h is -7.71%.

As for `CS(=O)(=O)c1cccc(S(=O)(=O)NCCCN2CCNC(=O)C2)c1`, the cytotoxicity at 70.5 h is -5.37%.

`CC(=O)N(CCc1nc(-c2cc(C(N)=O)co2)cs1)C(C)C`: the cytotoxicity at 70.5 h is 2.32%.

For `CC(C)c1nccn1CCC(=O)N1CCCC1c1cccn1C` (stereo not drawn), the cytotoxicity at 70.5 h is -3.96%.

Take `Cc1c(C(=O)N2CCC(C(O)c3ccc(Cl)cc3)CC2)cnn1C` (stereo not drawn): the cytotoxicity at 70.5 h was -3.74%.

For `O=S(=O)(N1CCCCC1)N1CCOC2(CCCC2)C1`, the cytotoxicity at 70.5 h is -0.763%.

Turning to `COCc1nc(CNc2cccc(-c3csc(C)n3)c2)cs1`, the cytotoxicity at 70.5 h was -0.82%.

For `COc1cccc(S(=O)(=O)CCNC(C)Cn2cccn2)c1` (stereo not drawn), the cytotoxicity at 70.5 h amounted to 4.6%.

Turning to `CC(=O)N(CCc1nc(-c2cc(C(N)=O)oc2C)cs1)C(C)C`, the cytotoxicity at 70.5 h is -8.28%.

Consider `CCN(C(=O)CN1CCCC1c1cc(C)no1)c1ccccc1C` (stereo not drawn), for which the cytotoxicity at 70.5 h was -6.07%.

Consider `OCCNC1CCc2cc3c(cc21)OCCO3` (stereo not drawn), for which the cytotoxicity at 70.5 h was 9.99%.

For `CN(c1nc(CSc2nnc(Cn3cncn3)o2)cs1)C1CC1`, the cytotoxicity at 70.5 h was found to be 0.758%.

As for `CC(NC(=O)Nc1nccs1)C(=O)NC1CCCC1` (stereo not drawn), the cytotoxicity at 70.5 h was found to be 0.896%.

As for `CC(NC(=O)Nc1nncs1)C(=O)NC1CCCC1` (stereo not drawn), the cytotoxicity at 70.5 h is -8.75%.

Take `CC(=O)NCCC(=O)NCc1ccc(Br)cc1Cl`: the cytotoxicity at 70.5 h is -0.899%.

As to `Cc1cc(NC(=O)CN(c2ccccc2)C(C)C)on1`, the cytotoxicity at 70.5 h amounted to 0.413%.

In the case of `N#Cc1ccnc(SCC2CN=C(N3CCOCC3)S2)c1` (stereo not drawn), the cytotoxicity at 70.5 h is 2.81%.

Consider `CC(C)c1nc(CSc2nnc(Cn3cncn3)o2)cs1`, for which the cytotoxicity at 70.5 h was determined as 0.92%.

Take `CSc1nc(C2CC2)nc(C)c1C(=O)NCc1ccco1`: the cytotoxicity at 70.5 h was determined as 16.1%.

In the case of `Cc1nc(CNC(=O)NC2CCN(c3cccc(Cl)c3)C2)no1` (stereo not drawn), the cytotoxicity at 70.5 h was -1.4%.

In the case of `O=C(NCCc1ccccn1)N1CCSC2(CCCCC2)C1`, the cytotoxicity at 70.5 h came to 1.93%.

Regarding `Cn1nccc1CNC(=O)NC1CCN(c2ncccc2Cl)C1` (stereo not drawn), the cytotoxicity at 70.5 h is -0.776%.

Take `Cc1[nH]ncc1C(C)NCc1ccc(F)cc1` (stereo not drawn): the cytotoxicity at 70.5 h is -1.27%.

In the case of `COc1ccc(S(=O)(=O)NC2(CC(N)=O)CCC2)cc1`, the cytotoxicity at 70.5 h was determined as 20.9%.

Turning to `Cc1nc(CNC(=O)NC2CCN(c3ncccc3Cl)C2)oc1C` (stereo not drawn), the cytotoxicity at 70.5 h was 14.8%.

Consider `Cc1nc(O)ccc1C(=O)N1CCCC1c1nc(-c2ccccc2)n[nH]1` (stereo not drawn), for which the cytotoxicity at 70.5 h amounted to 0.447%.

With `CN1CCN(Cc2cccc(NCc3cc[nH]n3)c2)CC1`, the cytotoxicity at 70.5 h is -5.29%.

With `c1ccc(NCc2ccsc2)c(Cn2cncn2)c1`, the cytotoxicity at 70.5 h is -15.1%.

With `CC(C)(C)c1ncc(CNc2ccccc2Cn2cncn2)s1`, the cytotoxicity at 70.5 h was -8.54%.

As to `CC(CO)(NC(=O)Nc1nnc(C2CC2)s1)C1CCCCC1` (stereo not drawn), the cytotoxicity at 70.5 h was -11.1%.

Turning to `Cn1ccc(C(=O)NCc2ccccc2Cn2ccnc2)cc1=O`, the cytotoxicity at 70.5 h is -8.24%.

`CCC(CC)c1nnc(NC(=O)N2CCCC(NC(C)=O)C2)s1` (stereo not drawn): the cytotoxicity at 70.5 h is -5.89%.

With `COc1cc(OC)c(CNC(=O)NCC(=O)N2CCCC2)c(OC)c1`, the cytotoxicity at 70.5 h was -6.53%.

As for `CC(C)NC(=O)C1CCN(C(C)C(=O)N2CCc3sccc3C2)CC1` (stereo not drawn), the cytotoxicity at 70.5 h was -2.44%.

For `CC(C)N(Cc1cnn(C)c1)C(=O)c1ccnc(N(C)C)c1`, the cytotoxicity at 70.5 h is -7.21%.

On to `CNC(=O)CN1CCC(NC(=O)CC(C)CCc2ccccc2)CC1` (stereo not drawn), for which the cytotoxicity at 70.5 h was 12.1%.

As to `CCOc1ccc(C(=O)N(Cc2cnn(C)c2)C(C)C)cc1`, the cytotoxicity at 70.5 h is -1.86%.

Regarding `Cn1ccc(C(=O)NCc2ccc(Cn3ccnc3)cc2)cc1=O`, the cytotoxicity at 70.5 h is -1.16%.

In the case of `CCN(CC)CCCN1CCC(NC(=O)OC(C)(C)C)CC1`, the cytotoxicity at 70.5 h is -4.36%.

For `CCN1CCN(CCNc2nc3ccc(C)cc3c(=O)n2C)CC1`, the cytotoxicity at 70.5 h was 11.8%.

With `CCOc1ccnc(N2CCN(C(=O)CCc3cnn(C)c3)CC2)n1`, the cytotoxicity at 70.5 h was -4.83%.

Regarding `NC(=O)C1CCCN1Cc1ccccc1NC(=O)CC(F)(F)F` (stereo not drawn), the cytotoxicity at 70.5 h was -3.67%.

On to `Cc1ccc(C(=O)NS(C)(=O)=O)cc1S(C)(=O)=O`, for which the cytotoxicity at 70.5 h was found to be 3.46%.

With `CCCC(C)NC(=O)CCN1C(=O)CCc2cc(F)ccc21` (stereo not drawn), the cytotoxicity at 70.5 h stood at 2.38%.

On to `c1cncc(-c2nc3c(c(NCC4(c5ccncc5)CC4)n2)CCC3)c1`, for which the cytotoxicity at 70.5 h was -0.48%.

Take `CCN(CC)C(=O)Nc1ccc(C(=O)N(C)C)c(C)c1`: the cytotoxicity at 70.5 h stood at 2.13%.

For `CCOC(C)c1noc(CN(C)C(=O)c2cc3ccccn3c2)n1` (stereo not drawn), the cytotoxicity at 70.5 h is -3.99%.

As to `CCOC(C)c1noc(CN(C)C(=O)c2ccncc2)n1` (stereo not drawn), the cytotoxicity at 70.5 h was 0.244%.

Regarding `CC(C)c1nsc(NC2CCOC3(CCCC3)C2)n1` (stereo not drawn), the cytotoxicity at 70.5 h is -0.215%.

Regarding `Cc1nsc(NC2CCOC3(CCCCC3)C2)n1` (stereo not drawn), the cytotoxicity at 70.5 h was -8.47%.

On to `COCCCOc1ccc(C(=O)N(Cc2cnn(C)c2)C(C)C)cn1`, for which the cytotoxicity at 70.5 h was -7.46%.

With `CN1CCCC(N(C)S(=O)(=O)c2cccc3ncccc23)C1` (stereo not drawn), the cytotoxicity at 70.5 h is -1.85%.

For `COCC(C)NC(=O)CCCn1cnc2ccccc2c1=O` (stereo not drawn), the cytotoxicity at 70.5 h was -5.09%.

With `O=c1cc(CNCc2ccc3c(c2)OCO3)nc2ccccn12`, the cytotoxicity at 70.5 h was -6.34%.

With `O=C(CCC1CCCO1)NCCCC(=O)Nc1ccc(Cl)cc1` (stereo not drawn), the cytotoxicity at 70.5 h is -12%.

On to `O=C(CCn1c(=O)oc2ccccc21)NCC(O)c1ccc(F)c(F)c1` (stereo not drawn), for which the cytotoxicity at 70.5 h is -4.98%.

Turning to `Fc1ccc(C2CN(CCc3ccncc3)CCO2)cc1` (stereo not drawn), the cytotoxicity at 70.5 h worked out at 14.4%.

As for `O=C(Cc1ccc(F)cc1)NCCNS(=O)(=O)C1CCCC1`, the cytotoxicity at 70.5 h was -8.77%.

For the molecule `c1ccc(C2CN(CCc3ccncc3)CCO2)cc1` (stereo not drawn), the cytotoxicity at 70.5 h was -9.13%.

For the molecule `Cc1csc(CNC(=O)Nc2ccc3c(c2)OCO3)n1`, the cytotoxicity at 70.5 h is -7.99%.

On to `Cc1cc(C(=O)Nc2ccn(CCCN3CCCC3)n2)no1`, for which the cytotoxicity at 70.5 h is 1.38%.

As to `O=C(NCC(CO)Cc1cccc(OC(F)(F)F)c1)c1cnccn1` (stereo not drawn), the cytotoxicity at 70.5 h was found to be 19.2%.

Regarding `CCc1cnc(CCNS(C)(=O)=O)s1`, the cytotoxicity at 70.5 h is -6.67%.

For `O=C(NCCn1cnnc1C1CC1)c1c(O)cc(F)cc1F`, the cytotoxicity at 70.5 h is -11.9%.

As for `O=C(NCC1CCC2(CC1)OCCO2)c1cccc(-n2cccn2)c1`, the cytotoxicity at 70.5 h stood at 19.6%.

As for `CC(C)(C)OC(=O)N1CCN(S(=O)(=O)CCCC#N)C2(CCCCC2)C1`, the cytotoxicity at 70.5 h is -4.48%.

With `CC(C)(NS(C)(=O)=O)c1nc(-c2ccc(F)c(F)c2)no1`, the cytotoxicity at 70.5 h was -5.95%.

Turning to `Cc1ccc(-c2noc(C(C)(C)NS(C)(=O)=O)n2)cc1F`, the cytotoxicity at 70.5 h is -2.69%.

`Cc1occc1C(=O)N1CCCS1(=O)=O`: the cytotoxicity at 70.5 h was -12%.

Take `CNC(=O)NCC(CO)Cc1ccccc1OC(F)(F)F` (stereo not drawn): the cytotoxicity at 70.5 h was -5.84%.

Consider `COc1cccc(CNc2nnc(C(C)(C)C)o2)c1OC`, for which the cytotoxicity at 70.5 h is -11.6%.

Turning to `Cc1cnc(CN2CCN(c3ccnc(-c4ccccc4)n3)CC2)cn1`, the cytotoxicity at 70.5 h is -10.6%.

Turning to `O=S(=O)(N1CCCC1)N(Cc1ccccc1)CC1CCCO1` (stereo not drawn), the cytotoxicity at 70.5 h is -7.82%.

In the case of `CCN(CC1CCCO1)S(=O)(=O)N1CCCCCC1` (stereo not drawn), the cytotoxicity at 70.5 h was -8.65%.

`Cc1noc(C)c1CN1CCN(c2ccnc(-c3ccccc3)n2)CC1`: the cytotoxicity at 70.5 h came out at 26.5%.

In the case of `Clc1ccccc1C1CN(CCc2ccncc2)CCO1` (stereo not drawn), the cytotoxicity at 70.5 h is -6.68%.

Consider `CCc1nccn1CC(=O)Nc1cccc(C(=O)OC)c1`, for which the cytotoxicity at 70.5 h is -5.31%.

Regarding `Cc1cc(C(=O)Nc2ccn(CCCN3CCCC3)n2)c(C)o1`, the cytotoxicity at 70.5 h was -0.537%.

Take `CC1CN(CCc2ccncc2)CCO1` (stereo not drawn): the cytotoxicity at 70.5 h is 3.7%.

As to `CCC(=O)Nc1ccc(F)c(S(=O)(=O)NC(C)(C)C)c1`, the cytotoxicity at 70.5 h was 8.07%.

Consider `Cc1cn2c(n1)C(CNCc1ccc(C)s1)CCC2` (stereo not drawn), for which the cytotoxicity at 70.5 h turned out to be 8.09%.

With `Cc1ccccc1CN(C)C(=O)c1ccoc1`, the cytotoxicity at 70.5 h was found to be 3.46%.

Turning to `Cc1ccc(CS(=O)(=O)Cc2nc(N)nc(N(C)C)n2)cc1`, the cytotoxicity at 70.5 h amounted to 0.995%.

As to `CC(C)c1ccc(S(=O)(=O)Cc2nc(N)nc(N(C)C)n2)cc1`, the cytotoxicity at 70.5 h is -1.91%.

`CC(C)(C)c1cnc(CN2CCC(NC(=O)Nc3ccccc3)CC2)o1`: the cytotoxicity at 70.5 h was found to be 15.4%.

For the molecule `CCCC(C)NC(=O)c1ccc(-c2ccco2)[nH]c1=O` (stereo not drawn), the cytotoxicity at 70.5 h was -2.99%.

As to `CCCN(CC1CC1)C(=O)Cn1ccccc1=O`, the cytotoxicity at 70.5 h is -3.4%.

Take `CCC(=O)N1CCN(C(=O)NC2CCc3ccccc3C2)CC1` (stereo not drawn): the cytotoxicity at 70.5 h was -4.1%.

For `CC(C)(C)c1cnc(CN2CCC(NC(=O)C3CCOCC3)CC2)o1`, the cytotoxicity at 70.5 h is -5%.

In the case of `Nc1cc2c(nn1)CCN(C(=O)c1csc(-c3ccco3)n1)C2`, the cytotoxicity at 70.5 h was -4.34%.

As for `O=C(NC1CCc2ccccc2C1)N1CCN(C(=O)C2CCC2)CC1` (stereo not drawn), the cytotoxicity at 70.5 h is -5.12%.

Regarding `N#Cc1ccc(NC(=O)C2CSCN2)cc1` (stereo not drawn), the cytotoxicity at 70.5 h was -6.81%.
